Test system: candida albicans
Test: Candida albicans challenge (log reduction)
Assay type: cell-based
Details: components applied separately at the same concentrations (400 ppm chlorite; 100 ppm hydrogen peroxide)

Molecule	effect on candida albicans activity
chlorite	ineffective
OO [hydrogen peroxide]	ineffective

Reference: patent US20150056272A1, “Synergistic Antimicrobial Preparations Containing Chlorite and Hydrogen Peroxide” (S.K. Pharmaceuticals, Inc., priority 1998, published 2015)
